The test has as its target Isoleucine--tRNA ligase (Escherichia coli (strain K12), UniProt P00956). Nature of the test: Competitive Ligand Binding Assay. The following applies: pH 7.5; 20 °C. The source says: Utilizing an analytical ultracentrifuge, the binding constants of various amino acids and isoleucine analogues to IleRS were estimated from their competition with radioactively labeled L-isoleucine.

For 21 compounds, Ki results are on record in BindingDB's records for doi:10.1111/j.1432-1033.1976.tb10435.x (Gesellschaft Fur Molekularbiolische Forschung Mbh, 1976).

One may read the Ki as the dissociation constant of the complex between target and ligand, obtained from inhibition or displacement. Higher therefore signals a looser hold on the target.

Isoleucine--tRNA ligase, sequence (P00956 whole entry): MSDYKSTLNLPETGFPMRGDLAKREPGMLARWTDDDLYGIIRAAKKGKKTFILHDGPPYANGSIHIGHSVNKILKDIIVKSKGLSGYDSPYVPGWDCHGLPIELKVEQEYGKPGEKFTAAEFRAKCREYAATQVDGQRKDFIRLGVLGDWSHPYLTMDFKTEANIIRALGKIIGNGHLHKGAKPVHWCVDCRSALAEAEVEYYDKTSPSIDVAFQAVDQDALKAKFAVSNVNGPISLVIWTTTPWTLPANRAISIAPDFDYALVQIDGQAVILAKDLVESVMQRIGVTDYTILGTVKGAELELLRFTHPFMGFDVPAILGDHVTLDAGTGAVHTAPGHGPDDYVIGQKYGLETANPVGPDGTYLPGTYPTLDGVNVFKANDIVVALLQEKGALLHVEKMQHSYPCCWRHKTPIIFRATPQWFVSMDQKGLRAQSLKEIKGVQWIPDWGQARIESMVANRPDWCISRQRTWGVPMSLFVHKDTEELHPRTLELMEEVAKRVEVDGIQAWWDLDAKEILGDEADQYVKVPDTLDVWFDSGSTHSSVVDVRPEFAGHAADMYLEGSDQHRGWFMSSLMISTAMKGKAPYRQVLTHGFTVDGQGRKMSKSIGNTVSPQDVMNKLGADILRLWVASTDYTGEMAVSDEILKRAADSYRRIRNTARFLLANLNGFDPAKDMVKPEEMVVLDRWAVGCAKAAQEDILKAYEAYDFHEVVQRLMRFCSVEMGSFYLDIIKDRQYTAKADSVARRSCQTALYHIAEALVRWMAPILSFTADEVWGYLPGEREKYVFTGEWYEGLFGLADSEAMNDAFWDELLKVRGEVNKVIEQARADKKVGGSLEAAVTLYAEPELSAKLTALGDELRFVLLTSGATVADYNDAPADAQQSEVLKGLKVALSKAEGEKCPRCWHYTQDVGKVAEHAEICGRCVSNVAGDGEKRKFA

Regarding `CCC[C@@H](CC)C(N)C(=O)O` (mixture of isomers) [(3R)-2-amino-3-ethylhexanoic acid], the Ki stood at 5 mM.
In the case of `CC(C)(C)CC(N)C(=O)O` (racemic) [2-amino-4,4-dimethylpentanoic acid], affinity was put at a Ki of 12.5 mM.
To `CCC(CC)C(N)C(=O)O` (stereo unspecified) [2-amino-3-ethylpentanoic acid] belongs 0.53 mM; to `CC(C)CCC(N)C(=O)O` (racemic) [2-amino-5-methylhexanoic acid], 3.33 mM.
Then `CC(C)[C@H](C)[C@H](N)C(=O)O` [(2S,3S)-2-amino-3,4-dimethylpentanoic acid], with 0.0455 mM; and `CCC[C@H](C)[C@H](N)C(=O)O` [(2S,3S)-2-amino-3-methylhexanoic acid], with 0.05 mM.
Regarding `CC[C@H](C)C[C@H](N)C(=O)O` [(2S,4S)-2-amino-4-methylhexanoic acid], the Ki came to 2 mM.
On to `CCC[C@@H](C)C(N)C(=O)O` (stereo partly drawn) [(3R)-2-amino-3-methylhexanoic acid], for which the Ki was 1.67 mM.
In turn, `CCC(CC)[C@H](N)C(=O)O` [(2S)-2-amino-3-ethylpentanoic acid] returned a Ki of 0.56 mM.
`CC(C)[C@@H](C)C(N)C(=O)O` (stereo partly drawn) [(3R)-2-amino-3,4-dimethylpentanoic acid] gave a Ki of 3.33 mM.
Consider `CCCC[C@H](C)C(N)C(=O)O` (stereo partly drawn) [(3S)-2-amino-3-methylheptanoic acid], for which affinity was put at a Ki of 2.5 mM.
`CCC[C@H](CC)C(N)C(=O)O` (stereo partly drawn) [(3S)-2-amino-3-ethylhexanoic acid] came in with a Ki of 5 mM.
For the compound `CC(C)[C@H](N)CO` [(2S)-2-amino-3-methylbutan-1-ol], affinity was put at a Ki of 14.3 mM.
In turn, `CC(C)(C)C[C@H](N)C(=O)O` [(2S)-2-amino-4,4-dimethylpentanoic acid] showed a Ki of 12.5 mM.
The compound `CC(C)CC[C@H](N)C(=O)O` [(2S)-2-amino-5-methylhexanoic acid] came in with a Ki of 2.5 mM. Against the preceding compound, the Ki is about 5-fold lower.
Compound `CCC(C)[C@H](N)CO` (stereo partly drawn) [(2S)-2-amino-3-methylpentan-1-ol] displayed a Ki of 8.33 mM.
In turn, `CC(C)[C@@H](C)[C@H](N)C(=O)O` [(2S,3R)-2-amino-3,4-dimethylpentanoic acid] registered a Ki of 5 mM.
`CCC(C)(C)[C@H](N)C(=O)O` (racemic) [2-amino-3,3-dimethylpentanoic acid] registered a Ki of 1.25 mM.
For `CCCCC[C@H](N)C(=O)O` [(2S)-2-aminoheptanoic acid], the Ki came to 16.7 mM.
Compound `CCCC[C@@H](C)C(N)C(=O)O` (stereo partly drawn) [(3R)-2-amino-3-methylheptanoic acid] came in with a Ki of 16.7 mM.
Regarding `CCC[C@H](C)C(N)C(=O)O` (stereo partly drawn) [(3S)-2-amino-3-methylhexanoic acid], the Ki was determined as 0.0588 mM. This Ki lies about 280-fold lower than the previous one.
